The values that follow come from US12636261B2, “Treatment of inflammation initiated by the spinal cord injury, the traumatic brain injury, stroke, in inhibition of cerebral and spinal cord edema and of inflammation in neurodegenerative, immune mediated and infectious diseases of the central nervous system” (priority 2021, dated 2026).

For data set [1] the following is noted: cited from earlier work.
Data set [2] has as its system rat model of SCI (balloon crush spinal cord injury). The data set is described as follows: Toe Pinch Withdrawal test in the rat model of SCI. The format is in vivo, rat (Long Evans). Conditions: 5 mg/rat/day oral, treatment groups 2-8 weeks post-SCI; ANOVA. The source says: In the Toe Pinch Withdrawal test, performed once every day in rats held by the tail, the sensory function and the strength of both hind limbs are scored 0-6 with 0=complete loss of reaction to the toe pinch and 6=strong, normal withdrawal in both legs after the toe pinch [Kwiecien et al, 2019, 2020b, 2020c].
(§1) Healthy male Long Evans rats aged 12 weeks, 330-360 g, were offered a fruit flavored jello cube twice a day for 1 week prior to the surgery and were separated in individual cages 3 days before the surgery. Rats were induced with 5% isoflurane in 95% oxygen flowing at a rate of 1 liter per minute and maintained at 3.5% isoflurane in 96.5% oxygen. […] In the initial experiment designed to determine the anti-inflammatory effect of 0.2, 1.0 and 5 mg per day of xanthohumol (Sigma-Aldrich) after the surgery, the rats were offered a jello cube with half of the above dose twice a day, at 8-9 hours and 15-16 hours intervals, and the consumption of the jello cube was observed and recorded every day for 7 days. […]
2. The Toe Pinch Withdrawal test [Kwiecien et al, 2021c] was performed once a day in rats held by the tail in the cage and the presence and strength of both hind legs scored 0-6 where 0=no response to the toe pinch and 6=strong, normal withdrawal response to the toe pinch in both legs.

The test system is the same in data set [3]. As to the kind of experiment: Hind End Locomotor test in the rat model of SCI. It counts as in vivo, rat (Long Evans). To be noted: 5 mg/rat/day oral (2.5 mg twice a day in jello), treatment groups 2-8 weeks post-SCI; ANOVA. How it is done:
In the Hind End Locomotor test, performed once every day in unrestrained rats in the cage, the motor function is measured with movements of both hind legs scored 0-6 with 0=complete paralysis and 6=normal gait [Kwiecien et al, 2019, 2020b, 2020c].
as §1, with “oxygen. The anaesthetized rats had the skin on the back shaved and prepared for surgery with 70% ethyl alcohol and 10% iodine swabs. The skin was cut over the caudal thoracic and lumbar spine and spinal muscles dissected from the vertebral spine of the thoracic 10 (T10) vertebrum and the dorsal arches of this vertebrum removed.” for “oxygen.”
1. […] The motor function of the hind limbs was scored from 0-6 where 0=complete paralysis of both hind legs and 6=normal locomotion.

Data set [4] has the same test system. The data set is described as follows: Duration of Paralysis of the Urinary Bladder in SCI rats. The format is in vivo, rat (Long Evans). Conditions: 5 mg/rat/day oral.
Description: as §1, with “oxygen. The anaesthetized rats had the skin on the back shaved and prepared for surgery with 70% ethyl alcohol and 10% iodine swabs. The skin was cut over the caudal thoracic and lumbar spine and spinal muscles dissected from the vertebral spine of the thoracic 10 (T10) vertebrum and the dorsal arches of this vertebrum removed. A 3Fogarty catheter was inserted via this laminectomy over the intact dura towards the head to place the caudal edge of the 3 mm long balloon at 1 cm rostral to the laminectomy.” for “oxygen.”
4. The duration of the distention of the urinary bladder that required manual voiding until the normal function of the urinary bladder was restored, in days, was recorded.

Data set [5] relates to phagocytic macrophages in the cavity of injury (COI). The data set is described as follows: Macrophage Count in the Cavity of Injury (COI), histology LFB+H&E. It counts as in vivo, rat (Long Evans). To be noted: for macrophage numbers in the COI, % of the untreated controls (100%): 7 days post-SCI. The method, then: The histologic examination is performed in the series of consecutive sections, […], of the spinal cord including the lesion, stained with luxol fast blue and counterstained with hematoxylin and eosin (LFB+H&E). A necrotic and hemorrhagic lesion deep in the spinal cord is infiltrated starting at the day 3, by numerous inflammatory, CD68+/CD163− macrophages that phagocytize myelin-rich necrotic debris and red blood cells. The numbers of macrophages rapidly increase and remain high for 4 weeks after SCI after which they gradually decline [Kwiecien et al, 2020a]. Within the first week post-SCI the deep lesion is transformed into a cavity of injury (COI) when it starts to accumulate excess water from edema in the surrounding spinal cord [Kwiecien et al, 2020a, 2021d]. The macrophage count is performed in a COI in the injured spinal cord of untreated and treated rats in a standardized fashion at fixed periods of time post-surgery to determine a degree of reduction of macrophage numbers related to a tested anti-inflammatory agent [Kwiecien et al, 2019; 2020a, 2020b, 2021c]. This reduction in numbers of macrophages plotted against such numbers in controls is reliably indicative of a therapeutic effect of an anti-inflammatory agent.
(§2) Healthy male Long Evans rats aged 12 weeks, 330-360 g, were offered a fruit flavored jello cube twice a day for 1 week prior to the surgery and were separated in individual cages 3 days before the surgery. Rats were induced with 5% isoflurane in 95% oxygen flowing at a rate of 1 liter per minute and maintained at 3.5% isoflurane in 96.5% oxygen. The anaesthetized rats had the skin on the back shaved and prepared for surgery with 70% ethyl alcohol and 10% iodine swabs. The skin was cut over the caudal thoracic and lumbar spine and spinal muscles dissected from the vertebral spine of the thoracic 10 (T10) vertebrum and the dorsal arches of this vertebrum removed. A 3Fogarty catheter was inserted via this laminectomy over the intact dura towards the head to place the caudal edge of the 3 mm long balloon at 1 cm rostral to the laminectomy. The balloon was inflated with 15 µL of sterile saline for 3 minutes, then deflated and the catheter removed. The spinal muscles were closed with absorbable sutures over the laminectomy and the skin incision was closed with stainless steel staples. Before awakening, the rats were administered; 50 μL of a painkiller Anafen (ketoprofen, 100 mg/mL, Merial) subcutaneously for pain, and 50 µL of Baytril antibiotic (enrofloxacin 50 mg/mL, Bayer) intramuscular, and 3 mL of saline subcutaneous. In the initial experiment designed to determine the anti-inflammatory effect of 0.2, 1.0 and 5 mg per day of xanthohumol (Sigma-Aldrich) after the surgery, the rats were offered a jello cube with half of the above dose twice a day, at 8-9 hours and 15-16 hours intervals, and the consumption of the jello cube was observed and recorded every day for 7 days. Each treatment group had 5 rats. In the second phase of the experiment 1 jello cube alone or jello cube with 2.5 mg xanthohumol was offered twice a day for 1, 2, 4, 6, and 8 weeks. Each treatment group had 6-7 rats.
At a required experimental time point; 1, 2, 4, 6, or 8 weeks post-surgery, the SCI rats were overdosed with the sodium pentobarbital (80 mg/kg b.w.) administered intraperitoneally. When in deep plane of anaesthesia, the chest was cut open, 100 international units of heparin sodium injected into the left heart ventricle and a cannula with flowing lactated Ringer's solution inserted into the left ventricle while the right auricle was cut open. After the blood was washed out, the flow of the lactated Ringer's solution was replaced by that of phosphate buffered formalin and the carcass was fixed.
The spine was removed, postfixed in formalin overnight and then placed in formalin supplemented with 8% EDTA, pH 7.0, to decalcify the spinal vertebrae. The decalcifying solution was replaced by fresh one every 2 days for 2 weeks. […]

A further data set deals with SCI rats. As to the kind of experiment: Toxicity observation in SCI rats under oral xanthohumol. The format is in vivo. To be noted: twice a day, 5 mg per day (approx. 15 mg/kg), up to 8 weeks.
Description: as §2, with “The spinal muscles were closed with absorbable sutures over the laminectomy and the skin incision was closed with stainless steel staples. Before awakening, the rats were administered; 50 μL of a painkiller Anafen (ketoprofen, 100 mg/mL, Merial) subcutaneously for pain, and 50 µL of Baytril antibiotic (enrofloxacin 50 mg/mL, Bayer) intramuscular, and 3 mL of saline subcutaneous.” left out, “Each treatment group had 5 rats. In the second phase of the experiment 1 jello cube alone or jello cube with 2.5 mg xanthohumol was offered twice a day for 1, 2, 4, 6, and 8 weeks. Each treatment group had 6-7 rats.” left out

Data set [6] can be described thus: Body Weight Change after the SCI surgery. Conditions: 5 mg/rat/day oral. It counts as in vivo, rat (Long Evans). The method, then: The Body Weight Change after the SCI surgery is recorded every 3rd day [Kwiecien et al, 2019, 2020b 2021c].
Healthy male Long Evans rats aged 12 weeks, 330-360 g, were offered a fruit flavored jello cube twice a day for 1 week prior to the surgery and were separated in individual cages 3 days before the surgery. Rats were induced with 5% isoflurane in 95% oxygen flowing at a rate of 1 liter per minute and maintained at 3.5% isoflurane in 96.5% oxygen. The anaesthetized rats had the skin on the back shaved and prepared for surgery with 70% ethyl alcohol and 10% iodine swabs. The skin was cut over the caudal thoracic and lumbar spine and spinal muscles dissected from the vertebral spine of the thoracic 10 (T10) vertebrum and the dorsal arches of this vertebrum removed. A 3Fogarty catheter was inserted via this laminectomy over the intact dura towards the head to place the caudal edge of the 3 mm long balloon at 1 cm rostral to the laminectomy. […] In the initial experiment designed to determine the anti-inflammatory effect of 0.2, 1.0 and 5 mg per day of xanthohumol (Sigma-Aldrich) after the surgery, the rats were offered a jello cube with half of the above dose twice a day, at 8-9 hours and 15-16 hours intervals, and the consumption of the jello cube was observed and recorded every day for 7 days. […]

For data set [7] the following is noted: cited from earlier work. This is another data set of the same source.
For data set [8] the following is noted: cited from earlier work; for bioavailability: Wistar rats.
The test system of another data set is mice. Conditions: cited from earlier work.
A further data set concerns rats. Conditions: cited from earlier work.

Structures are written as SMILES. Like-named read-outs stand apart in the source and are kept apart here.

On to `COc1cc(O)c(CC=C(C)C)c(O)c1C(=O)/C=C/c1ccc(O)cc1` [xanthohumol, 2′,4′,4-trihydroxy-6′-methoxy-3′-prenylchalcone], for which, in data set [1], the solubility in water result is on record as “poorly”. The “Toe Pinch Withdrawal test score (0-6) vs untreated rats” value in data set [2] was “statistically better”. Also, the “Hind End Locomotor test score (0-6) vs untreated rats” value in data set [3] was “significantly higher scores”. The “recovery of the urinary bladder function vs untreated rats” value in data set [4] (4 weeks treatment group) is “significantly faster”; in data set [4] (6 weeks treatment group) it was “tendency for the paralyzed urinary bladder to recover faster than in controls”. For the same compound, the “macrophage numbers in the COI, % of the untreated controls (100%)” value in [5] (0.2 mg/rat/day oral, not statistically significant) is 73.7%; in data set [5] (1.0 mg/rat/day oral, p=0.026), 63.9%; in [5] (5.0 mg/rat/day oral, dose-response study, p=0.0013), 53.8%. The “macrophage counts in the COI, % of the controls” value in data set [5] (5 mg/rat/day oral, 1 week post-SCI, second phase) is on record as 57.0%; in data set [5] (5 mg/rat/day oral, 2 weeks post-SCI), 60.7%; in [5] (5 mg/rat/day oral, 4 weeks post-SCI), 14.1%; in data set [5] (5 mg/rat/day oral, 6 weeks post-SCI), 22.9%; in [5] (5 mg/rat/day oral, 8 weeks post-SCI, not statistically different) it was 32.7%. Besides, in [5] (5 mg/rat/day oral, 6 and 8 weeks post-SCI), the “macrophages in the COI on histologic sections (FIG. 7)” value is reported as “rare or absent”. For the same compound, in the data set with SCI rats, the toxicity of xanthohumol entry is recorded as “not observed”. In addition, the “body weight change vs untreated controls” value in data set [6] (groups 1, 2 and 8 weeks post-SCI) was “no statistical difference”. Further, the “body weight recovery post-surgery vs untreated controls” value in data set [6] (groups treated for 4 and 6 weeks) is “recovered statistically sooner and to a greater degree”. Besides, in [7], the “bioavailability after oral administration” value is listed as “approximately 1%”. In data set [8] (10 mg/kg intravenously), the half-life was 7.67 h. In addition, the bioavailability is 1.16% in [8] (oral 40 mg/kg) and 0.53% in [8] (oral 200 mg/kg). For the same compound, the “toxicity after long administration of large doses” value in the data set on mice and with rats was “no toxicity” throughout. For the same compound, the “toxic effect of daily oral administration” value in the data set with rats (16.9 mg/kg body weight daily oral) is reported as “no toxic effect”.
